The text below walks through data of US11225480B2, “Malic enzyme inhibitors” (SUN PHARMA ADVANCED RESEARCH COMPANY LTD, priority 2019, dated 2022).

What all share (type): biochemical
For one test, the target named is human ME2 enzyme (Homo sapiens, UniProt P23368). Kind of test: ME2 inhibition assay (diaphorase/resazurin coupled fluorescence). The note with it: 10 μM compound concentration; read-out: Malic Enzyme 2 % inhibition (10 μM). On the procedure:
ME2 catalyzes the oxidative decarboxylation of malate to pyruvate with conversion of the co-factor β-NAD+ to β-NADH. In the fluorescence assay, a coupled reaction is set up where in an enzyme, Diaphorase, utilizes NADH generated by ME2, to convert the dye resazurin to a fluorescent molecule resorufin. Resorufin has a characteristic fluorescence with excitation/emission at 540/600 nm (SLAS Discov., 2017 April 1:2472555217706649).
The enzyme activity inhibition assay is set up in a 200 μL final reaction volume in a 96-well plate. As per the experimental design, 2 μL of the compounds at 100× the desired concentration (10 μM) in DMSO were added to the respective wells with 178 μL of assay buffer (50 mM Tris-HCl pH 7.5, 10 mM MnCl2, 7 mM L-malate, 50 μM Resazurin and 0.025 mg/ml Diapharose). The 96-well plate was incubated on a plate shaker at room temperature for 15 minutes protected from light. The well contents were gently mixed by adding 10 μL of 60 nM human ME2 enzyme to the wells and the plate was incubated on a shaker at room temperature for 5 minutes protected from light. Suitable ‘enzyme only’ and ‘no enzyme’ controls were included in the experiment. The enzymatic reaction was started by adding 10 μL of 2 mM β-NAD+. The reaction was gently mixed and the plate was initially left on a shaker at room temperature for −7 minutes protected from light. Later, the plate was incubated without shaking at room temperature for 2 hours. At the end of 2 hours, the fluorescence of the wells was measured at excitation 540 nm and emission 600 nm. The % enzyme activity of the compounds is obtained by normalizing the data with enzyme only (100%) and no enzyme controls (0%) using GraphPad Prism software 7.04.
On the technique in general: Alamar Blue is a resazurin reagent that responds to reducing activity.

A further test deals with T1, human ME1 enzyme (Homo sapiens, UniProt P48163).
T1 sequence (P48163 1-572): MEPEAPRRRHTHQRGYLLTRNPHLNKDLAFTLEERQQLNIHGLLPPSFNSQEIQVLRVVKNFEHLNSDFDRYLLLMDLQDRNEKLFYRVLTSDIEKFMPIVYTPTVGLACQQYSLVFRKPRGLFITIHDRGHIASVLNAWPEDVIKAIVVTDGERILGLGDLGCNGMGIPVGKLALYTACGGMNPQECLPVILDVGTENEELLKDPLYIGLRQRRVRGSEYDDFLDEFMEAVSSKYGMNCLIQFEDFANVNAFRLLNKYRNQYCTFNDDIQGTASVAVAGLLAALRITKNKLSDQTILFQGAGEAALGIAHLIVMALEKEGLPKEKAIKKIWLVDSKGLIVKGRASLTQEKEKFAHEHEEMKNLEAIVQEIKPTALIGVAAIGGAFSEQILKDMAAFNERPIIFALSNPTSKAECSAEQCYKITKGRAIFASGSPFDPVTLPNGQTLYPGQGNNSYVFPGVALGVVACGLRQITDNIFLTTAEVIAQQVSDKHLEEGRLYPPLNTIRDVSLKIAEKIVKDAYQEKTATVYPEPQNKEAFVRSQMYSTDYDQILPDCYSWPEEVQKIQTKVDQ
The test is described as follows: ME1 inhibition assay (diaphorase/resazurin coupled fluorescence). As to conditions: 10 μM compound concentration; read-out: Malic Enzyme 1 % inhibition (10 μM). The procedure: ME1 catalyzes the oxidative decarboxylation of malate to pyruvate with conversion of the co-factor β-NADP+ to β-NADPH. In the fluorescence assay, a coupled reaction is set up where in an enzyme, Diaphorase, utilizes NADPH generated by ME1, to convert the dye resazurin to a fluorescent molecule resorufin. Resorufin has a characteristic fluorescence with excitation/emission at 540/600 nm (SLAS Discov., 2017 April 1:2472555217706649).
The enzyme activity inhibition assay is set up in a 200 μL final reaction volume in a 96-well plate. As per the experimental design, 2 μL of the compounds at 100× the desired concentration (10 μM) in DMSO were added to the respective wells with 178 μL of assay buffer (50 mM Tris-HCl pH 7.5, 10 mM MnCl2, 2 mM L-malate, 10 μM Resazurin and 0.01 mg/ml Diapharose). The 96-well plate was incubated on a plate shaker at room temperature for 15 minutes protected from light. The well contents were gently mixed by adding 10 μL of 20 nM human ME1 enzyme to the wells and the plate was incubated on a shaker at room temperature for 5 minutes protected from light. Suitable ‘enzyme only’ and ‘no enzyme’ controls were included in the experiment. The enzymatic reaction was started by adding 10 μL of 0.3 mM D-NADP+. The reaction was gently mixed and the plate was initially left on a shaker at room temperature for −7 minutes protected from light. Later, the plate was incubated without shaking at room temperature for 2 hours. At the end of 2 hours, the fluorescence of the wells was measured at excitation 540 nm and emission 600 nm. The % enzyme activity of the compounds is obtained by normalizing the data with enzyme only (100%) and no enzyme controls (0%) using GraphPad Prism software 7.04.

A further test concerns the target T2, human ME3 enzyme (Homo sapiens, UniProt Q16798).
T2 sequence (Q16798 1-604): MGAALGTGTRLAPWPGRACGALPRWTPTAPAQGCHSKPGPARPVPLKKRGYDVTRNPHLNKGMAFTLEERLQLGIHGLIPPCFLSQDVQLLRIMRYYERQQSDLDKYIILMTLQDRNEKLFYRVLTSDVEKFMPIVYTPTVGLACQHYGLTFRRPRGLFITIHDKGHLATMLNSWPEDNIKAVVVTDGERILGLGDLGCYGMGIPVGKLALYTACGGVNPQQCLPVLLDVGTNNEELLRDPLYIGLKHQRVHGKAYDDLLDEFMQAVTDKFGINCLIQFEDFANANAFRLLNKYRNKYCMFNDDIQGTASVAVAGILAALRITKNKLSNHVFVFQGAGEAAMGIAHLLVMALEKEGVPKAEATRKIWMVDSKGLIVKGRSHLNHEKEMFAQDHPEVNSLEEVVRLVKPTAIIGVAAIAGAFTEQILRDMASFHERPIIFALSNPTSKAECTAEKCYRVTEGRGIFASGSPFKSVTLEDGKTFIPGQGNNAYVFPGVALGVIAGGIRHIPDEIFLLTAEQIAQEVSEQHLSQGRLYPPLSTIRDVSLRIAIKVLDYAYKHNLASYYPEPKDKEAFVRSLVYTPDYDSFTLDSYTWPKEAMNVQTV
The test is described as follows: ME3 inhibition assay (diaphorase/resazurin coupled fluorescence). The note with it: 10 μM compound concentration; read-out: Malic Enzyme 3 % inhibition (10 μM). The method in brief:
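Coupled read-out: NADPH made by human ME3 (20 nM stock) drives diaphorase conversion of resazurin (50 μM) to resorufin; buffer 50 mM Tris-HCl pH 7.5, 10 mM MnCl2, 3 mM L-malate.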

human ME2 enzyme, sequence (P23368 19-584): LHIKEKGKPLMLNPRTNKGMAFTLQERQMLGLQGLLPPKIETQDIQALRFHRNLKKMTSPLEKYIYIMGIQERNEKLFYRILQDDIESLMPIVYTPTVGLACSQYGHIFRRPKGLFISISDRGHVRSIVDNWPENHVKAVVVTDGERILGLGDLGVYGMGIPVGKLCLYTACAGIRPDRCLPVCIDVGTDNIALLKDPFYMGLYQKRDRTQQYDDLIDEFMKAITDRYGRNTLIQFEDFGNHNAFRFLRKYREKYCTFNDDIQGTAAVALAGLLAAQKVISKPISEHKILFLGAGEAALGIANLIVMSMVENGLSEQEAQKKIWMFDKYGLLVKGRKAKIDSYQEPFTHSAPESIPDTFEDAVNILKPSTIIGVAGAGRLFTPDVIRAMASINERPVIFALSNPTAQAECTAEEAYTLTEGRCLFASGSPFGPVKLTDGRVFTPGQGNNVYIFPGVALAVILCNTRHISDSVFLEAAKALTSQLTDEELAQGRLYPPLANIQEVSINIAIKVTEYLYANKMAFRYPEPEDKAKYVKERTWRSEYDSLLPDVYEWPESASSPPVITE

For `O=C(O)c1ccc(-c2cc(C(=O)N3CCN(c4ccc(O)cc4)CC3)cc(N3CCOCC3)n2)cc1` [I.42, 4-[4-[4-(4-Hydroxy-phenyl)-piperazine-1-carbonyl]-6-morpholino-2-pyridyl]-benzoic acid], the inhibition at 10 µM on human ME2 enzyme, on human ME1 enzyme and at human ME3 enzyme was > 90% each time.

As for `O=C(c1c[nH]c2ccccc12)N1CCN(c2ccc(O)cn2)CC1` [I.43, [4-(5-Hydroxy-pyridin-2-yl)-piperazin-1-yl]-(1H-indol-3-yl)-methanone], the inhibition at 10 µM on human ME2 enzyme is 50 to 69%; at human ME1 enzyme, > 90%; on human ME3 enzyme, > 90%.

On to `O=C(c1c2ccccc2nc2ccccc12)N1CCN(c2ccc(O)cn2)CC1` [I.44, Acridin-9-yl-[4-(5-hydroxy-pyridin-2-yl)-piperazin-1-yl]-methanone], for which the figures for the inhibition at 10 µM at human ME2 enzyme, on human ME1 enzyme and at human ME3 enzyme were 50 to 69%, > 90% and > 90%, respectively.

Turning to `O=C(CCc1ccccc1)N1CCN(c2ccc(O)cn2)CC1` [I.45, 1-[4-(5-hydroxy-pyridin-2-yl)-piperazin-1-yl]-3-phenyl-propan-1-one], the inhibition at 10 µM at human ME2 enzyme was 70 to 89%; at human ME1 enzyme, > 90%; on human ME3 enzyme, > 90%.

For `O=C(CCc1cccc2ccccc12)N1CCN(c2ccc(O)cc2)CC1` [I.46, 1-[4-(4-Hydroxy-phenyl)-piperazin-1-yl]-3-naphthalen-1-yl-propan-1-one], the inhibition at 10 µM on human ME2 enzyme, at human ME1 enzyme and at human ME3 enzyme was > 90% throughout.

Regarding `O=C(c1c[nH]c2ccccc2c1=O)N1CCN(c2ccc(O)cc2)CC1` [I.47, 3-[4-(4-Hydroxy-phenyl)-piperazine-1-carbonyl]-1H-quinolin-4-one], the inhibition at 10 µM on human ME2 enzyme, on human ME1 enzyme and on human ME3 enzyme was > 90% throughout.

As to `O=C(C(c1ccccc1)c1ccccc1)N1CCN(c2ccc(O)cn2)CC1` [I.48, 1-[4-(5-Hydroxy-2-pyridyl)-piperazin-1-yl]-2,2-diphenyl-ethanone], the inhibition at 10 µM on human ME2 enzyme was 70 to 89%; on human ME1 enzyme it was 70 to 89%; on human ME3 enzyme, > 90%.

Take `O=C(Cc1ccccc1Oc1ccccc1)N1CCN(c2ccc(O)cc2)CC1` [I.49, 1-[4-(4-hydroxyphenyl)piperazin-1-yl]-2-(2-phenoxyphenyl)ethanone]: the inhibition at 10 µM at human ME2 enzyme, on human ME1 enzyme and on human ME3 enzyme was > 90% each time.

With `O=C(c1ccnc(N2CCCCC2)c1)N1CCN(c2ccc(O)cc2)CC1` [I.50, [4-(4-Hydroxy-phenyl)-piperazin-1-yl]-[2-(1-piperidyl)-4-pyridyl]-methanone], the inhibition at 10 µM at human ME2 enzyme, on human ME1 enzyme and at human ME3 enzyme was > 90% throughout.

Consider `O=C(CCc1c[nH]c2ccccc12)N1CCN(c2ccc(O)cn2)CC1` [I.51, 1-[4-(5-Hydroxy-pyridin-2-yl)-piperazin-1-yl]-3-(1H-indol-3-yl)-propan-1-one], for which the inhibition at 10 µM at human ME2 enzyme is 70 to 89%; on human ME1 enzyme, 70 to 89%; on human ME3 enzyme it was > 90%.

As for `Cc1cc(N2CCN(C(=O)Cc3ccccc3)CC2)ccc1O` [I.52, 1-[4-(4-Hydroxy-3-methyl-phenyl)-piperazin-1-yl]-2-phenyl-ethanone], the inhibition at 10 µM at human ME2 enzyme, on human ME1 enzyme and at human ME3 enzyme was > 90% each time.

For `O=C(CCc1c2ccccc2cc2ccccc12)N1CCN(c2ccc(O)cc2)CC1` [I.53, 3-Anthracen-9-yl-1-[4-(4-hydroxy-phenyl)-piperazin-1-yl]-propan-1-one], the inhibition at 10 µM at human ME2 enzyme, at human ME1 enzyme and at human ME3 enzyme was > 90% each time.

`O=C(c1c[nH]c2ccccc2c1=O)N1CCN(c2ccc(O)cn2)CC1` [I.54, 3-[4-(5-Hydroxy-2-pyridyl)-piperazine-1-carbonyl]-1H-quinolin-4-one]: the values for the inhibition at 10 µM on human ME2 enzyme, on human ME1 enzyme and on human ME3 enzyme were 50 to 69%, 70 to 89% and > 90%, respectively.

Regarding `O=C(CC12CC3CC(CC(C3)C1)C2)N1CCN(c2ccc(O)cn2)CC1` [I.55, 2-(1-adamantyl)-1-[4-(5-hydroxy-2-pyridyl)piperazin-1-yl]ethanone], the results for the inhibition at 10 µM at human ME2 enzyme, at human ME1 enzyme and on human ME3 enzyme were 70 to 89%, > 90% and > 90%, respectively.

As for `O=C(CC12CC3CC(CC(O)(C3)C1)C2)N1CCN(c2ccc(O)cn2)CC1` [I.56, 2-(3-Hydroxy-1-adamantyl)-1-[4-(5-hydroxy-2-pyridyl)-piperazin-1-yl]ethanone], the inhibition at 10 µM at human ME2 enzyme was 70 to 89%; at human ME1 enzyme, 50 to 69%; on human ME3 enzyme, > 90%.

In the case of `O=C(CNCC12CC3CC(CC(C3)C1)C2)N1CCN(c2ccc(O)cn2)CC1` [I.57, 2-(1-adamantylmethylamino)-1-[4-(5-hydroxy-2-pyridyl)piperazin-1-yl]ethanone], the results for the inhibition at 10 µM at human ME2 enzyme, at human ME1 enzyme and at human ME3 enzyme were 70 to 89%, 70 to 89% and > 90%, respectively.

With `O=C(C(c1ccc(Cl)cc1)c1ccc(Cl)cc1)N1CCN(c2ccc(O)cn2)CC1` [I.58, 2,2-bis(4-Chloro-phenyl)-1-[4-(5-hydroxy-2-pyridyl)-piperazin-1-yl]ethanone], the inhibition at 10 µM at human ME2 enzyme is 50 to 69%; at human ME1 enzyme it was 70 to 89%; at human ME3 enzyme, > 90%.

The inhibition is the change of the read-out against control, counted positive when it falls.
